Data on four compounds can be found in patent US11596649B2, “Composition in powder form comprising iron and probiotic bacteria” (NESTEC S.A., priority 2016, dated 2023).

Read-outs that look alike come from different tables or passages of the source.

One data set has as its system probiotic bacteria. The data set is described as follows: Viability of probiotic bacteria with added iron source (general finding). The data set is classed as cell-based. The following applies: iron source in powder composition with probiotic bacteria, at reconstitution.
The conditions of data set [1]: in human; Hurrell, Iron Fortification of Foods, 1985; cited from earlier work.
Data set [2] has as its system Lactobacillus rhamnosus (deposited as CGMCC 1.3724). The following applies: 10 and 30 mg Fe2+ per 100 g maltodextrin model composition, FIG. 1.
Procedure: (§1) The maltodextrin, the dried probiotic powder and the iron source were added together in a 500 mL plastic beaker and mixed for 5 minutes at 34 rpm using a Turbula® T2F dry mixer (WAB, Switzerland). An amount of 25 g of freshly mixed sample was diluted 1/10 in an aqueous tryptone salt solution supplemented with anti-foaming agent at 37° C. After 5 minutes of homogenization using a Masticator® (IUL, Spain), decimal dilutions were performed. The appropriate dilution resulting in 30-300 colonies after incubation was then transferred to a petri dish and mixed with MRS agar according to the pour plate method. Once solidified the plates were incubated at 37° C. under aerobic conditions. After 48 h of incubation the colonies present on the plates were counted.
The test system of data set [3] is Bifidobacterium longum (deposited as ATCC BAA-999). The following applies: 5, 25 and 50 mg Fe2+ per 100 g maltodextrin model composition, FIG. 2.
Procedure: The Samples were produced as follows. The maltodextrin, the dried probiotic powder and the iron source were added together in a 500 mL plastic beaker and mixed for 5 minutes at 34 rpm using a Turbula® T2F dry mixer (WAB, Switzerland). An amount of 25 g of freshly mixed sample was diluted 1/10 in an aqueous tryptone salt solution supplemented with anti-foaming agent at 37° C. After 5 minutes of homogenization using a Masticator® (IUL, Spain), decimal dilutions were performed. The appropriate dilution resulting in 30-300 colonies after incubation was then transferred to a petri dish and mixed with RCA agar according to the pour plate method. Once solidified the plates were incubated at 37° C. under anaerobic conditions. After 48 h of incubation the colonies present on the plates were counted.
For data set [4] the test system is unchanged. The conditions noted are these: FIG. 5; for loss of live Bifidobacterium longum in the reconstituted compositions: 25 and 50 mg Fe2+ per 100 g infant formula powder (Nestogen 1).
Procedure: The Samples were produced as follows. The infant formula powder, the dried probiotic powder and the iron source were added together in a 500 mL plastic beaker and mixed for 5 minutes at 34 rpm using a Turbula® T2F dry mixer (WAB, Switzerland). An amount of 25 g of freshly mixed sample was diluted 1/10 in an aqueous tryptone salt solution supplemented with anti-foaming agent at 37° C. After 5 minutes of homogenization using a Masticator® (IUL, Spain), decimal dilutions were performed. The appropriate dilution resulting in 30-300 colonies after incubation was then transferred to a petri dish and mixed with RCA agar according to the pour plate method. Once solidified the plates were incubated at 37° C. under anaerobic conditions. After 48 h of incubation the colonies present on the plates were counted.
In data set [5] the test system is Lactobacillus rhamnosus (deposited as CGMCC 1.3724). The conditions noted are these: FIG. 4; for loss of live L. rhamnosus in the reconstituted compositions: 10 and 30 mg Fe2+ per 100 g infant formula powder (Nestogen 1).
Procedure: An amount of 25 g of freshly mixed sample was diluted 1/10 in an aqueous tryptone salt solution supplemented with anti-foaming agent at 37° C. After 5 minutes of homogenization using a Masticator® (IUL, Spain), decimal dilutions were performed. The appropriate dilution resulting in 30-300 colonies after incubation was then transferred to a petri dish and mixed with MRS agar according to the pour plate method. Once solidified the plates were incubated at 37° C. under aerobic conditions. After 48 h of incubation the colonies present on the plates were counted.
Data set [6] relates to Lactobacillus paracasei (deposited as CNCM I-2116). Briefly: Survival of Lactobacillus paracasei on reconstitution, maltodextrin model composition (Example 3, plate count). In kind it is cell-based. The following applies: 5, 25 and 50 mg Fe2+ per 100 g maltodextrin model composition, FIG. 3.
Procedure: as §1
For data set [7] the following is noted: in rat; Hurrell, Iron Fortification of Foods, 1985; cited from earlier work.

As to `O=C([O-])CC(O)(CC(=O)O)C(=O)[O-].[Fe+2]` [ferrous citrate], the “loss of viability of probiotic bacteria” value with probiotic bacteria is “do not significantly impair”. Also, the average bioavailability in data set [1] is listed as 74%.

For the compound `O.O.O.O.O.O.O.O=S(=O)([O-])[O-].[Fe+2]` [ferrous sulphate heptahydrate, reference compound], the “loss of viability of probiotic bacteria” value in the data set with probiotic bacteria is on record as “significant loss”. For the same compound, the “loss of live L. rhamnosus in the reconstituted compositions” value in data set [2] and in data set [5] was “significant loss” in each case. Further, the “loss of live Bifidobacterium longum in the reconstituted compositions” value in data set [3] and in data set [4] was “significant loss” in each case.

As to `O.O=S(=O)([O-])[O-].[Fe+2]` [ferrous sulphate monohydrate], the “loss of viability of probiotic bacteria” value in the data set on probiotic bacteria is given as “no significant loss”. Further, the “loss of live L. rhamnosus in the reconstituted compositions” value in data set [2] and in data set [5] was “no significant loss” each time. Moreover, the “loss of viable Lactobacillus rhamnosus compared with dissolved ferrous sulphate in spray-dried form” value is reported as “significantly lower” in data set [2] (both iron concentrations); “significantly lower” in data set [5] (10 and 30 mg Fe2+ per 100 g infant formula composition, both iron concentrations). The “loss of live Bifidobacterium longum in the reconstituted compositions” value in data set [3] and in data set [4] was “no significant loss” throughout. Also, the “loss of viable Bifidobacterium longum compared with dissolved ferrous sulphate in spray-dried form” value was “significantly lower” in data set [3] (all iron concentrations); “significantly lower” in data set [4] (25 and 50 mg Fe2+ per 100 g infant formula composition, all iron concentrations). Besides, the “loss of live Lactobacillus paracasei in the reconstituted compositions” value in data set [6] was “no significant loss”. Moreover, the “loss of viable Lactobacillus paracasei compared with dissolved ferrous sulphate in spray-dried form” value in data set [6] (all iron concentrations) is on record as “significantly lower”.

By bioavailability is commonly meant dose-corrected exposure relative to a reference, in per cent. ferric citrate: in the data set on probiotic bacteria, the “loss of viability of probiotic bacteria” value is given as “do not significantly impair”. Besides, the bioavailability in data set [7] was 75%. Further, the average bioavailability in data set [1] is 31%.
